Data published in the NIST ThermoML archive (doi:10.1021/je9010568).

Assays:
[1] = Liquid
[2] = φn = volume fraction of the nth substance listed; details: Liquid, φ1 = 0.75

OCCO [1,2-ethanediol]
[1]
Details	specific volume [m3/kg]
273.15 K, 100 kPa, Vibrating tube method	0.0008871
274.14 K, 100 kPa, Vibrating tube method	0.0008876
275.14 K, 100 kPa, Vibrating tube method	0.0008882
276.15 K, 100 kPa, Vibrating tube method	0.0008887
277.15 K, 100 kPa, Vibrating tube method	0.0008893
278.15 K, 100 kPa, Vibrating tube method	0.0008898
279.15 K, 100 kPa, Vibrating tube method	0.0008904
280.15 K, 100 kPa, Vibrating tube method	0.0008909
281.15 K, 100 kPa, Vibrating tube method	0.0008915
282.15 K, 100 kPa, Vibrating tube method	0.000892
283.15 K, 100 kPa, Vibrating tube method	0.0008926
284.15 K, 100 kPa, Vibrating tube method	0.0008931
285.15 K, 100 kPa, Vibrating tube method	0.0008937
286.15 K, 100 kPa, Vibrating tube method	0.0008942
287.15 K, 100 kPa, Vibrating tube method	0.0008948
288.09 K, 99800 kPa, Bellows volumetry	0.0008687
288.12 K, 348700 kPa, Bellows volumetry	0.0008241
288.15 K, 100 kPa, Vibrating tube method	0.0008954
288.15 K, 299700 kPa, Bellows volumetry	0.0008313
288.15 K, 349400 kPa, Bellows volumetry	0.0008238
288.16 K, 100 kPa, Vibrating tube method	0.0008954
288.17 K, 150000 kPa, Bellows volumetry	0.0008579
288.17 K, 248800 kPa, Bellows volumetry	0.0008395
288.17 K, 298500 kPa, Bellows volumetry	0.0008314
288.17 K, 350400 kPa, Bellows volumetry	0.0008236
288.18 K, 48900 kPa, Bellows volumetry	0.0008815
288.18 K, 99800 kPa, Bellows volumetry	0.0008684
288.18 K, 149400 kPa, Bellows volumetry	0.0008577
288.18 K, 198100 kPa, Bellows volumetry	0.0008485
288.18 K, 299200 kPa, Bellows volumetry	0.0008312
288.19 K, 49200 kPa, Bellows volumetry	0.0008811
288.19 K, 249300 kPa, Bellows volumetry	0.0008392
288.2 K, 248600 kPa, Bellows volumetry	0.0008396
288.21 K, 100 kPa, Vibrating tube method	0.0008954
288.21 K, 49000 kPa, Bellows volumetry	0.0008815
288.21 K, 199700 kPa, Bellows volumetry	0.0008479
288.22 K, 100 kPa, Vibrating tube method	0.0008954
288.23 K, 149400 kPa, Bellows volumetry	0.000858
288.24 K, 99600 kPa, Bellows volumetry	0.0008688
288.24 K, 199700 kPa, Bellows volumetry	0.0008482
289.15 K, 100 kPa, Vibrating tube method	0.0008959
290.15 K, 100 kPa, Vibrating tube method	0.0008965
291.15 K, 100 kPa, Vibrating tube method	0.000897
292.15 K, 100 kPa, Vibrating tube method	0.0008976
293.15 K, 100 kPa, Vibrating tube method	0.0008982
294.15 K, 100 kPa, Vibrating tube method	0.0008987
295.15 K, 100 kPa, Vibrating tube method	0.0008993
296.15 K, 100 kPa, Vibrating tube method	0.0008998
297.15 K, 100 kPa, Vibrating tube method	0.0009004
298.16 K, 100 kPa, Vibrating tube method	0.000901
299.16 K, 100 kPa, Vibrating tube method	0.0009016
300.16 K, 100 kPa, Vibrating tube method	0.0009021
301.16 K, 100 kPa, Vibrating tube method	0.0009027
302.16 K, 100 kPa, Vibrating tube method	0.0009033
303.15 K, 100 kPa, Vibrating tube method	0.0009038
304.16 K, 100 kPa, Vibrating tube method	0.0009044
305.15 K, 100 kPa, Vibrating tube method	0.000905
306.15 K, 100 kPa, Vibrating tube method	0.0009056
307.15 K, 100 kPa, Vibrating tube method	0.0009061
308.15 K, 100 kPa, Vibrating tube method	0.0009067
309.15 K, 100 kPa, Vibrating tube method	0.0009073
310.15 K, 100 kPa, Vibrating tube method	0.0009079
311.15 K, 100 kPa, Vibrating tube method	0.0009085
312.15 K, 100 kPa, Vibrating tube method	0.0009091
313.15 K, 100 kPa, Vibrating tube method	0.0009097

OCCO [1,2-ethanediol] + O
[2]
Details	specific volume [m3/kg]
273.15 K, 100 kPa, Vibrating tube method	0.0009024
274.15 K, 100 kPa, Vibrating tube method	0.0009029
275.15 K, 100 kPa, Vibrating tube method	0.0009035
276.15 K, 100 kPa, Vibrating tube method	0.000904
277.15 K, 100 kPa, Vibrating tube method	0.0009045
278.15 K, 100 kPa, Vibrating tube method	0.0009051
279.15 K, 100 kPa, Vibrating tube method	0.0009056
280.15 K, 100 kPa, Vibrating tube method	0.0009061
281.15 K, 100 kPa, Vibrating tube method	0.0009067
282.15 K, 100 kPa, Vibrating tube method	0.0009072
283.16 K, 100 kPa, Vibrating tube method	0.0009078
284.16 K, 100 kPa, Vibrating tube method	0.0009083
285.16 K, 100 kPa, Vibrating tube method	0.0009088
286.16 K, 100 kPa, Vibrating tube method	0.0009094
287.16 K, 100 kPa, Vibrating tube method	0.0009099
288.09 K, 100 kPa, Vibrating tube method	0.0009104
288.09 K, 148600 kPa, Bellows volumetry	0.0008753
288.1 K, 98200 kPa, Bellows volumetry	0.0008859
288.11 K, 100 kPa, Vibrating tube method	0.0009104
288.11 K, 49700 kPa, Bellows volumetry	0.0008965
288.12 K, 98200 kPa, Bellows volumetry	0.0008844
288.13 K, 100 kPa, Vibrating tube method	0.0009105
288.13 K, 49400 kPa, Bellows volumetry	0.0008974
288.13 K, 349300 kPa, Bellows volumetry	0.0008385
288.14 K, 149800 kPa, Bellows volumetry	0.0008734
288.14 K, 199000 kPa, Bellows volumetry	0.0008635
288.15 K, 199100 kPa, Bellows volumetry	0.0008654
288.16 K, 100 kPa, Vibrating tube method	0.0009105
288.16 K, 248700 kPa, Bellows volumetry	0.0008558
288.17 K, 299900 kPa, Bellows volumetry	0.0008461
288.19 K, 250600 kPa, Bellows volumetry	0.0008544
288.29 K, 299600 kPa, Bellows volumetry	0.0008463
288.31 K, 199200 kPa, Bellows volumetry	0.0008639
288.31 K, 350200 kPa, Bellows volumetry	0.0008386
288.32 K, 251000 kPa, Bellows volumetry	0.0008545
288.33 K, 49300 kPa, Bellows volumetry	0.0008968
288.33 K, 149300 kPa, Bellows volumetry	0.0008737
288.33 K, 300300 kPa, Bellows volumetry	0.0008464
288.33 K, 348300 kPa, Bellows volumetry	0.0008391
288.36 K, 100900 kPa, Bellows volumetry	0.0008842
289.16 K, 100 kPa, Vibrating tube method	0.000911
290.16 K, 100 kPa, Vibrating tube method	0.0009116
291.16 K, 100 kPa, Vibrating tube method	0.0009121
292.15 K, 100 kPa, Vibrating tube method	0.0009127
293.15 K, 100 kPa, Vibrating tube method	0.0009132
294.15 K, 100 kPa, Vibrating tube method	0.0009138
295.16 K, 100 kPa, Vibrating tube method	0.0009143
296.16 K, 100 kPa, Vibrating tube method	0.0009149
297.15 K, 100 kPa, Vibrating tube method	0.0009155
298.15 K, 100 kPa, Vibrating tube method	0.000916
299.15 K, 100 kPa, Vibrating tube method	0.0009166
300.16 K, 100 kPa, Vibrating tube method	0.0009172
301.16 K, 100 kPa, Vibrating tube method	0.0009177
302.16 K, 100 kPa, Vibrating tube method	0.0009183
303.16 K, 100 kPa, Vibrating tube method	0.0009189
304.16 K, 100 kPa, Vibrating tube method	0.0009195
305.16 K, 100 kPa, Vibrating tube method	0.00092
306.16 K, 100 kPa, Vibrating tube method	0.0009206
307.15 K, 100 kPa, Vibrating tube method	0.0009212
308.15 K, 100 kPa, Vibrating tube method	0.0009218
309.15 K, 100 kPa, Vibrating tube method	0.0009223
310.15 K, 100 kPa, Vibrating tube method	0.0009229
311.15 K, 100 kPa, Vibrating tube method	0.0009235
312.15 K, 100 kPa, Vibrating tube method	0.0009241
313.15 K, 100 kPa, Vibrating tube method	0.0009247
